The target of this test is T1, integrin α4β7 on α4β7+ memory T helper cells (Homo sapiens, UniProt P13612+P26010).
T1 construct: endogenous in cells
T1 sequence (P13612 34-1032): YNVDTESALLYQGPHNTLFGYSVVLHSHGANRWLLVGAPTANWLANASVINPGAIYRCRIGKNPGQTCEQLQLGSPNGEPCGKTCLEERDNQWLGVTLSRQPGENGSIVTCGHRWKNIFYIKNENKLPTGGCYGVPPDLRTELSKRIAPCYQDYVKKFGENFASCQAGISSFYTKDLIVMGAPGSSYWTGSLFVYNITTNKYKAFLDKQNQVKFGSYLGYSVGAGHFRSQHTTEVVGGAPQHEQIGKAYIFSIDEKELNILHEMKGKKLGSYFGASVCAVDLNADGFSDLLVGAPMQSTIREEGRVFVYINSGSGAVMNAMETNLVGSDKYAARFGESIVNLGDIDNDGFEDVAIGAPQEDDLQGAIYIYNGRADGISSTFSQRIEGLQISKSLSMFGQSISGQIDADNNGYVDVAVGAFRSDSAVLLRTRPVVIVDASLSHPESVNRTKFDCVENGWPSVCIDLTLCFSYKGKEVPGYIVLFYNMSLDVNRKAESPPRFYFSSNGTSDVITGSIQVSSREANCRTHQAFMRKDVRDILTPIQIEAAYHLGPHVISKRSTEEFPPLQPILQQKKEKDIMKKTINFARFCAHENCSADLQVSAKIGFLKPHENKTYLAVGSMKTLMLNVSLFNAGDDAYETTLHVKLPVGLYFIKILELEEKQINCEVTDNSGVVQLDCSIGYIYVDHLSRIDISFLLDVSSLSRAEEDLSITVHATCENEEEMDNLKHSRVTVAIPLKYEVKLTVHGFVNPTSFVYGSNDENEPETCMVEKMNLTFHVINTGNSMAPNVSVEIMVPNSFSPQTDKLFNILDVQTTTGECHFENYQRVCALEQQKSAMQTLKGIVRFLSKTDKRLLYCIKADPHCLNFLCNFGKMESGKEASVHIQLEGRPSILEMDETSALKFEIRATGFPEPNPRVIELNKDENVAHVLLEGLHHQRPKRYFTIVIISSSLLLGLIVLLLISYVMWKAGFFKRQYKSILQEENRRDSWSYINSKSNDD
T1 sequence (P26010 20-798): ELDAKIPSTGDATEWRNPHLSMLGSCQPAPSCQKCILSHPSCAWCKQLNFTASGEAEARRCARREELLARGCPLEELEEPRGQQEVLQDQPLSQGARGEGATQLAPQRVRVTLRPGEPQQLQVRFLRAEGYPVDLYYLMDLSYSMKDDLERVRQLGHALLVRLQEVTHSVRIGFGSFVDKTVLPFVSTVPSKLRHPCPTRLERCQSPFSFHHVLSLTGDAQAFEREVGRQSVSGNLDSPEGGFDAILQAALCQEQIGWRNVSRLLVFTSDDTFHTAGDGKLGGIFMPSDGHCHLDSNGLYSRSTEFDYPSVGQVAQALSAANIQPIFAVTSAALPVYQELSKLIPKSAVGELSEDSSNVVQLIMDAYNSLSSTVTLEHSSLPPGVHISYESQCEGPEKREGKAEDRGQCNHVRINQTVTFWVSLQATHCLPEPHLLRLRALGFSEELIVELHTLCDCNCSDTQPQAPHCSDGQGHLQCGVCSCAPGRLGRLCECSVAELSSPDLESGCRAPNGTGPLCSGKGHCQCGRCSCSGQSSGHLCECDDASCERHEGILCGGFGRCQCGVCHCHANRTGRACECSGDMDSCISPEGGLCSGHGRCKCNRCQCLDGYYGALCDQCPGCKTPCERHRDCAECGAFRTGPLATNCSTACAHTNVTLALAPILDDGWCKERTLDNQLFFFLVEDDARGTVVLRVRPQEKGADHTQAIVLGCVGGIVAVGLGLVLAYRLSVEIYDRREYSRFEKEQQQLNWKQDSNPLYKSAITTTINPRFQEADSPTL
Nature of the test: MAdCAM-1 competition / receptor occupancy assay in human whole blood, α4β7-positive Th memory cells. The format is cell-based. As to conditions: human whole blood; for IC50: inhibition of MAdCAM-1 binding to α4β7-positive Th memory cells, FACS, read-out: MADCAM FACS α4β7 Th mem. An outline of the steps: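 Human heparinised whole blood; saturating biotinylated rhMAdCAM-1-Fc or rhVCAM-1-Fc bound 1 h at RT, stained in buffer with 4 mM MnCl2, detected by streptavidin-APC flow cytometry on gated CD45+CD3+CD4+CD45RO+CD49d+ β7+ or β7-lo cells. Occupancy = 100−((% ligand-positive cells with compound/% ligand-positive cells DMSO)*100).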

A word on the EC50: it is the concentration at which the effect is half-maximal.

Take `CC(C)C[C@@H]1NC(=O)c2ccc(-c3ccc(N4CCN(C(=O)c5ccccc5-c5ccccc5C(=O)N5CCN(c6ccc(-c7ccc8cc7CNC(=O)[C@@H]7CCCN7[C@H](C(=O)NC(C)(C)C)[C@H](C)NC(=O)[C@H]([C@@H](C)O)NC(=O)[C@H](CC(=O)O)NC(=O)[C@H](CC(C)C)NC8=O)cc6)CC5)CC4)cc3)c(c2)CNC(=O)[C@@H]2CCCN2[C@H](C(=O)NC(C)(C)C)[C@H](C)NC(=O)[C@H]([C@@H](C)O)NC(=O)[C@H](CC(=O)O)NC1=O` [Compound 517]: the IC50 turned out to be 43 nM. Further, the EC50 (FIG. 7, read-out: EC50, competition with saturating amount of MAdCAM) turned out to be 38 nM.

Regarding `CC(C)C[C@@H]1NC(=O)c2ccc(-c3ccc(N4CCN(C(=O)[C@H]5CCC[C@H]5C(=O)N5CCN(c6ccc(-c7ccc8cc7CNC(=O)[C@@H]7CCCN7[C@H](C(=O)NC(C)(C)C)[C@H](C)NC(=O)[C@H]([C@@H](C)O)NC(=O)[C@H](CC(=O)O)NC(=O)[C@H](CC(C)C)NC8=O)cc6)CC5)CC4)cc3)c(c2)CNC(=O)[C@@H]2CCCN2[C@H](C(=O)NC(C)(C)C)[C@H](C)NC(=O)[C@H]([C@@H](C)O)NC(=O)[C@H](CC(=O)O)NC1=O` [Compound 458], the IC50 came out at 66 nM.

As for `CC(C)C[C@@H]1NC(=O)c2ccc(-c3ccc(N4CCN(Cc5ccc(CN6CCN(c7ccc(-c8ccc9cc8CNC(=O)[C@@H]8CCCN8[C@H](C(=O)NC(C)(C)C)[C@H](C)NC(=O)[C@H]([C@@H](C)O)NC(=O)[C@H](CC(=O)O)NC(=O)[C@H](CC(C)C)NC9=O)cc7)CC6)cc5)CC4)cc3)c(c2)CNC(=O)[C@@H]2CCCN2[C@H](C(=O)NC(C)(C)C)[C@H](C)NC(=O)[C@H]([C@@H](C)O)NC(=O)[C@H](CC(=O)O)NC1=O` [Compound 500], the IC50 was found to be 55 nM.

The values are drawn from patent publication US11713338B2, “Cyclic peptides multimers targeting α-4-β-7 integrin” (priority 2016, dated 2023).
